Laboratory results as given in patent publication US20080226718A1, “Indole and Azaindole Derivatives For the Treatment of Inflammatory and Autoimmune Diseases” (Brane Discovery S.r.l, priority 2005, published 2008).

Key:
Type in all cases: cell-based, SJL mice
[1] = tested on: encephalitogenic lymphocytes; assay: Chemokine-induced adhesion of murine encephalitogenic T cells to ICAM-1; conditions: for Block of chemokine-induced autoreactive lymphocyte adhesion, in words: 5-50 μM for 1 h, 1 μM CCL19; for Chemokine-induced Adhesion in encephalitogenic lymphocytes, Mean counts ± S.D., in presence of MIP3-β stimulation: 1 μM CCL19 (MIP-3beta); for Chemokine-induced Adhesion in encephalitogenic lymphocytes, Mean counts ± S.D., in presence of MIP3-β stimulation / Adhesion in encephalitogenic lymphocytes, Mean counts ± S.D., in absence of MIP3-β stimulation: ICAM-1
Description: Adhesion was performed on purified integrin ligands and was evaluated as reported in Constantin G. et al., Immunity, 16, 759-769, 2000. Briefly, primary naïve lymphocytes, polymorphonuclear neutrophils (PMNs) or monocytes were isolated form healthy donors. In other experiments, murine autoreactive T cells were obtained from SJL mice immunized with PLP139-151 as described (Piccio L. et al., J. Immunol, 168, 1940-1949, 2002). Cells were resuspended at 4×10^6/ml in PBS, CaCl2, MgCl2 1 mM, 10% FCS, pH 7.2. Adhesion assays were performed on eighteen well glass slides coated overnight at 4° C. with ligands for CR3 (fibrinogen) or LFA-1 (ICAM-1). 20 μl of cell suspension were added to the wells and stimulated at 37° C. with 5 μl of agonists prior to washing, fixation and computer-assisted enumeration of bound cells.
Integrin activation was measured as induction of rapid adhesion triggered by the classical chemoattractant N-formyl-L-methionyl-L-leucyl-phenylalanine (fMLP) (100 nM) or by the CC chemokine MIP3β (CCL19, 1 μM). PMNs and monocytes were triggered to adhere to fibrinogen (CR3 ligand); naive human lymphocytes or murine encephalitogenic T cells were triggered to adhere to ICAM-1 (LFA-1 ligand). Triggered adhesion was evaluated after 2 min of stimulation under static conditions. The cells were pretreated at 37° C. for 30-60 min with the indicated concentrations of the test compound. Results are expressed as percentage of inhibition over control (=100%) and are the mean of three experiments in the case of human leukocytes. Results are expressed as mean counts and are the mean counts ±S.D of three experiments and are the mean of three experiments in the case of murine encephalitogenic lymphocytes.
Chemokines trigger rapid arrest of lymphocytes in blood vessels through pertussis toxin-sensitive G protein coupled receptors. Rapid adhesion to purified ICAM-1 was measured in in vitro adhesion assays using control/untreated cells and lymphocytes treated with concentration between 5-50 μM for 1 h. Autoreactive lymphocytes were then stimulated with 1 μM CCL19 (MIP-3beta) for 3 min. […] These compounds were already efficient in blocking adhesion using a concentration of 5 μM for the cell treatment.

[2] = tested on: encephalitogenic lymphocytes; assay: Spontaneous adhesion of encephalitogenic T cells on purified ICAM-1; conditions: Mus musculus, Lymphocyte, 1 h; for inhibition at 5 µM: [cpd] 5 μM, read-out: Inhibition of Spontaneous Adhesion in encephalitogenic lymphocytes (% of control/non-treated cells) ICAM-1; for inhibition at 10 µM: [cpd] 10 μM; for inhibition at 10 µM / inhibition at 25 µM / inhibition at 50 µM / inhibition at 100 µM: read-out: Inhibition of Spontaneous Adhesion in encephalitogenic lymphocytes (% of control/non-treated cells) ICAM-1 (converted); for inhibition at 25 µM: [cpd] 25 μM; for inhibition at 50 µM: [cpd] 50 μM; for inhibition at 100 µM: [cpd] 100 μM
Description: (§1) Spontaneous adhesion of encephalitogenic lymphocytes was measured in adhesion assays on purified ICAM-1 and VCAM-1 as previously described (Constantin G. et al., J. Immunol. 162, 1144-1149, 1999). Autoreactive T cells were obtained from SJL mice immunized with PLP139-151 as described (Piccio L. et al., J. Immunol. 168, 1940-1949, 2002). Lymphocytes were treated with test compound at concentrations between 5-100 μM for 1 h, while control/untreated cells were treated with vehicle (DMSO). Results are expressed as percentage of inhibition over control (=100%) ±S.D and are the mean of three-four experiments.
(§2) ICAM-1 and VCAM-1 are adhesion molecules from the family of immunoglobulins and control the migration of lymphocytes through the endothelium during inflammatory responses. Encephalitogenic T cells are activated lymphocytes displaying spontaneous adhesion on ICAM-1 and VCAM-1 and have increased migration capacities in inflammation sites. Spontaneous adhesion of encephalitogenic lymphocytes was measured in adhesion assays on purified ICAM-1 and VCAM-1 as described in the method.

[3] = tested on: encephalitogenic lymphocytes; assay: Spontaneous adhesion of encephalitogenic T cells on purified VCAM-1; conditions: Mus musculus, Lymphocyte, 1 h; for inhibition at 5 µM: [cpd] 5 μM, read-out: Inhibition of Spontaneous Adhesion in encephalitogenic lymphocytes (% of control/non-treated cells) VCAM-1; for inhibition at 10 µM: [cpd] 10 μM; for inhibition at 10 µM / inhibition at 25 µM / inhibition at 50 µM: read-out: Inhibition of Spontaneous Adhesion in encephalitogenic lymphocytes (% of control/non-treated cells) VCAM-1 (converted); for inhibition at 25 µM: [cpd] 25 μM; for inhibition at 50 µM: [cpd] 50 μM
Description: as §1, §2

In the case of `COc1ccc(-c2c(C#N)n(CCCO)c3cc(OC)c(OC)cc23)cc1` [Example 44], the “Block of chemokine-induced autoreactive lymphocyte adhesion, in words” value (“Block” below) [1] is reported as “almost complete block”, the “Chemokine-induced Adhesion in encephalitogenic lymphocytes, Mean counts ± S.D., in presence of MIP3-β stimulation” value (“Chemokine-induced Adhesion” below) ([1]; [cpd] 5 μM) is reported as 2.1 ± 0.5 and the “Adhesion in encephalitogenic lymphocytes, Mean counts ± S.D., in absence of MIP3-β stimulation” value (“Adhesion … in absence of MIP3-β stimulation” below) ([1]; [cpd] 5 μM) is reported as 1.0 ± 0.9. The “Chemokine-induced Adhesion” value ([1]; [cpd] 10 μM) was 3.7 ± 1.1, the “Adhesion … in absence of MIP3-β stimulation” value ([1]; [cpd] 10 μM) was 0.4 ± 1.7 and the “Chemokine-induced Adhesion” value ([1]; [cpd] 25 μM) was 1.8 ± 0.5. For the same compound, the “Adhesion … in absence of MIP3-β stimulation” value ([1]; [cpd] 25 μM) was 0.4 ± 0.1, the “Chemokine-induced Adhesion” value ([1]; [cpd] 50 μM) was 0.1 ± 0.5 and the “Adhesion … in absence of MIP3-β stimulation” value ([1]; [cpd] 50 μM) was 0.4 ± 0.5. For the same compound, the inhibition at 5 µM [2] was 75%, the inhibition at 10 µM [2] was 84% and the inhibition at 25 µM [2] was 88%. It also gave an inhibition at 50 µM [2] of 91.5%, an inhibition at 100 µM [2] of 99% and an inhibition at 5 µM [3] of 29%. For the same compound, the inhibition at 10 µM [3] was 39%, the inhibition at 25 µM [3] was 43% and the inhibition at 50 µM [3] was 84%.

In the case of `COC(=O)c1[nH]c2cc(OC)c(OC)cc2c1-c1ccccc1` [Example 3], the “Block” value [1] is reported as “almost complete block”, the “Chemokine-induced Adhesion” value ([1]; [cpd] 5 μM) is reported as 10.5 ± 3.0 and the “Adhesion … in absence of MIP3-β stimulation” value ([1]; [cpd] 5 μM) is reported as 1.5 ± 2.0. The “Chemokine-induced Adhesion” value ([1]; [cpd] 10 μM) was 8.7 ± 3.0, the “Adhesion … in absence of MIP3-β stimulation” value ([1]; [cpd] 10 μM) was 1.8 ± 1.0 and the “Chemokine-induced Adhesion” value ([1]; [cpd] 25 μM) was 3.5 ± 1.5. For the same compound, the “Adhesion … in absence of MIP3-β stimulation” value ([1]; [cpd] 25 μM) was 1.2 ± 1.0, the “Chemokine-induced Adhesion” value ([1]; [cpd] 50 μM) was 5.0 ± 2.0 and the “Adhesion … in absence of MIP3-β stimulation” value ([1]; [cpd] 50 μM) was 0.5 ± 2.0. It also gave an inhibition at 5 µM [2] of 78%, an inhibition at 10 µM [2] of 79.5% and an inhibition at 25 µM [2] of 90%. The inhibition at 50 µM [2] was 92%, the inhibition at 100 µM [2] was 99% and the inhibition at 5 µM [3] was 6%. For the same compound, the inhibition at 10 µM [3] was 9%, the inhibition at 25 µM [3] was 32.5% and the inhibition at 50 µM [3] was 71.4%.

With `COc1ccc(-c2c(C#N)[nH]c3cc(OC)c(OC)cc23)cc1` [Example 17] the “Block” value [1] was “almost complete block”, the “Chemokine-induced Adhesion” value ([1]; [cpd] 5 μM) was 13.6 ± 3.5 and the “Adhesion … in absence of MIP3-β stimulation” value ([1]; [cpd] 5 μM) was 2.0 ± 1.0. For the same compound, the “Chemokine-induced Adhesion” value ([1]; [cpd] 10 μM) was 10.0 ± 3.0, the “Adhesion … in absence of MIP3-β stimulation” value ([1]; [cpd] 10 μM) was 0.9 ± 0.2 and the “Chemokine-induced Adhesion” value ([1]; [cpd] 25 μM) was 1.8 ± 1.0. The “Adhesion … in absence of MIP3-β stimulation” value ([1]; [cpd] 25 μM) was 0.6 ± 0.5, the “Chemokine-induced Adhesion” value ([1]; [cpd] 50 μM) was 2.1 ± 0.9 and the “Adhesion … in absence of MIP3-β stimulation” value ([1]; [cpd] 50 μM) was 0.4 ± 0.1. The inhibition at 5 µM [2] was 72.8%, the inhibition at 10 µM [2] was 72.5% and the inhibition at 25 µM [2] was 76%. For the same compound, the inhibition at 50 µM [2] was 92%, the inhibition at 100 µM [2] was 99% and the inhibition at 5 µM [3] was 34%. The inhibition at 10 µM [3] was 53%, the inhibition at 25 µM [3] was 71.5% and the inhibition at 50 µM [3] was 89%.

With `COc1ccc(-c2c3n(c4cc(OC)c(OC)cc24)CCNC3=O)cc1` [Example 27] the “Block” value [1] was “almost complete block”, the “Chemokine-induced Adhesion” value ([1]; [cpd] 5 μM) was 17.7 ± 2.5 and the “Adhesion … in absence of MIP3-β stimulation” value ([1]; [cpd] 5 μM) was 5.0 ± 2.2. For the same compound, the “Chemokine-induced Adhesion” value ([1]; [cpd] 10 μM) was 18.1 ± 4.3, the “Adhesion … in absence of MIP3-β stimulation” value ([1]; [cpd] 10 μM) was 1.7 ± 1.0 and the “Chemokine-induced Adhesion” value ([1]; [cpd] 25 μM) was 9.3 ± 0.5. The “Adhesion … in absence of MIP3-β stimulation” value ([1]; [cpd] 25 μM) was 1.5 ± 0.1, the “Chemokine-induced Adhesion” value ([1]; [cpd] 50 μM) was 5.1 ± 1.1 and the “Adhesion … in absence of MIP3-β stimulation” value ([1]; [cpd] 50 μM) was 1.2 ± 1.1. For the same compound, the inhibition at 5 µM [2] was 69%, the inhibition at 10 µM [2] was 76% and the inhibition at 25 µM [2] was 82%. It also gave an inhibition at 50 µM [2] of 90%, an inhibition at 100 µM [2] of 99% and an inhibition at 5 µM [3] of 11%. For the same compound, the inhibition at 10 µM [3] was 31%, the inhibition at 25 µM [3] was 35.5% and the inhibition at 50 µM [3] was 82%.
